Reference: patent publication US20260257039A1, “CONVECTION-ENHANCED THERMO-CHEMOTHERAPY CATHETER SYSTEM” (Board of Regents, The University of Texas System, priority 2022, published 2026)

Experiments:
[1] = test system: ex vivo porcine brains; conditions: contrast agent infusion, literature; cited from earlier work
[2] = test system: excised pig brains
Procedure: The volume of solution that leaked into the ventricles was segmented into a separate mask (green).
In recent studies (see e.g. FIG. 62A-FIG. 62C) E. Y. Elenes et al., Journal of Engineering and Science in Medical Diagnostics and Therapy, 2020), the arborizing catheter, comprising six infusion ports, was compared to a reflux-preventing single-port catheter. Infusions of iohexol at a flow rate of 1 μL/min/microneedle were performed, using the arborizing catheter on one hemisphere and a single-port catheter on the contralateral hemisphere of excised pig brains. The volume dispersed (Va) of the contrast agent was quantified for each catheter using standard techniques (G. P. Mazzara, et al., International Journal of Radiation Oncology Biology Physics, 2004; and M. F. Dempsey, et al., American Journal of Neuroradiology, 2005).

SMILES: CC(=O)N(CC(O)CO)c1c(I)c(C(=O)NCC(O)CO)c(I)c(C(=O)NCC(O)CO)c1I (centres unmarked) [iohexol]
- voxels with a concentration between 10 and 15% [1]: ~40%
- Vd, arborizing catheter relative to single-port catheter [2]: approximately 6 times
